Measured values published in patent US20230416258A1, “BENZ[…], AND PREPARATION METHOD THEREFOR AND USE THEREOF” (CHINA PHARMACEUTICAL UNIVERSITY, priority 2020, published 2023).

Test system: KM mice
Test: Test for drug-induced disappearance of righting reflex in mice
Assay type: in vivo
Settings: single rapid bolus via tail vein
Method in brief: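 Latency to, and duration of, righting reflex loss were recorded after one fast tail-vein bolus. Animals: randomized female KM mice weighing 18–25 g.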

SMILES	Duration (30 mg/kg)	Latency (30 mg/kg)	Duration (60 mg/kg)	Latency (60 mg/kg)	Duration (15 mg/kg)	Latency (15 mg/kg)
COC(=O)CC[C@@H]1N=C(c2ccccc2Cl)c2cc(Cl)ccc2-n2c(SC3CCN(C)CC3)nnc21 [Compound 93, methyl (S)-3-(8-chloro-6-(2-chlorophenyl)-1-((1-methylpiperidin-4-yl)thio)-4H-benzo[f][1,2,4]triazolo[4,3-a][1,4]diazepin-4-yl)propionate]	12.41 min	0.58 min				
COC(=O)CC[C@@H]1N=C(c2ccccc2Cl)c2cc(Br)ccc2-n2c(SC3CCN(C)CC3)nnc21 [Compound 94, methyl (S)-3-(8-bromo-6-(2-chlorophenyl)-1-((1-methylpiperidin-4-yl)thio)-4H-benzo[f][1,2,4]triazolo[4,3-a][1,4]diazepin-4-yl)propionate]			13.85 min	0.61 min		
COC(=O)CC[C@@H]1N=C(c2ccccc2Cl)c2cc([N+](=O)[O-])ccc2-n2c(SC3CCN(C)CC3)nnc21 [Compound 95, methyl (S)-3-(8-nitro-6-(2-chlorophenyl)-1-((1-methylpiperidin-4-yl)thio)-4H-benzo[f][1,2,4]triazolo[4,3-a][1,4]diazepin-4-yl)propionate]	12.41 min	0.82 min				
COC(=O)CC[C@@H]1N=C(c2ccccc2Cl)c2cc(Cl)ccc2-n2c(SCCCN3CCN(CCO)CC3)nnc21 [Compound 96, methyl (S)-3-(8-chloro-6-(2-chlorophenyl)-1-((3-(4-(2-hydroxyethyl)piperazin-1-yl)propyl)thio)-4H-benzo[f][1,2,4]triazolo[4,3-a][1,4]diazepin-4-yl)propionate]	7.98 min	0.49 min				
COC(=O)CC[C@@H]1N=C(c2ccccc2Cl)c2cc([N+](=O)[O-])ccc2-n2c(SCCCN3CCN(CCO)CC3)nnc21 [Compound 98, methyl (S)-3-(8-nitro-6-(2-chlorophenyl)-1-((3-(4-(2-hydroxyethyl)piperazin-1-yl)propyl)thio)-4H-benzo[f][1,2,4]triazolo[4,3-a][1,4]diazepin-4-yl)propionate]	14.71 min	1.31 min				
COC(=O)CC[C@@H]1N=C(c2ccccc2Cl)c2cc(Cl)ccc2-n2c(SCN3CCOCC3)nnc21 [Compound 99, methyl (S)-3-(8-chloro-6-(2-chlorophenyl)-1-((morpholinomethyl)thio)-4H-benzo[f][1,2,4]triazolo[4,3-a][1,4]diazepin-4-yl)propionate]			19.37 min	2.63 min		
COC(=O)CC[C@@H]1N=C(c2ccccc2Cl)c2cc(Br)ccc2-n2c(SCN3CCOCC3)nnc21 [Compound 100, methyl (S)-3-(8-bromo-6-(2-chlorophenyl)-1-((morpholinomethyl)thio)-4H-benzo[f][1,2,4]triazolo[4,3-a][1,4]diazepin-4-yl)propionate]	9.75 min	0.64 min				
COC(=O)CC[C@@H]1N=C(c2ccccc2Cl)c2cc([N+](=O)[O-])ccc2-n2c(SCN3CCOCC3)nnc21 [Compound 101, methyl (S)-3-(8-nitro-6-(2-chlorophenyl)-1-((morpholinomethyl)thio)-4H-benzo[f][1,2,4]triazolo[4,3-a][1,4]diazepin-4-yl)propionate]	12.05 min	0.85 min				
COC(=O)CC[C@@H]1N=C(c2ccccc2)c2cc(Br)ccc2-n2c(SC)nnc21 [Compound 103, methyl (S)-3-(8-bromo-1-(methylthio)-6-phenyl-4H-benzo[f][1,2,4]triazolo[4,3-a][1,4]diazepin-4-yl)propionate]	14.42 min	0.74 min				
COC(=O)CC[C@@H]1N=C(c2ccccc2)c2cc([N+](=O)[O-])ccc2-n2c(SC)nnc21 [Compound 104, methyl (S)-3-(8-nitro-1-(methylthio)-6-phenyl-4H-benzo[f][1,2,4]triazolo[4,3-a][1,4]diazepin-4-yl)propionate]	9.78 min	0.77 min				
COC(=O)CC[C@@H]1N=C(c2ccccc2)c2cc(Cl)ccc2-n2c(SCCN3CCOCC3)nnc21 [Compound 105, methyl (S)-3-(8-chloro-1-((2-morpholinoethyl)thio)-6-phenyl-4H-benzo[f][1,2,4]triazolo[4,3-a][1,4]diazepin-4-yl)propionate]	13.94 min	0.63 min	13.17 min	0.49 min		
COC(=O)CC[C@@H]1N=C(c2ccccc2)c2cc(Br)ccc2-n2c(SCCN3CCOCC3)nnc21 [Compound 106, methyl (S)-3-(8-bromo-1-((2-morpholinoethyl)thio)-6-phenyl-4H-benzo[f][1,2,4]triazolo[4,3-a][1,4]diazepin-4-yl)propionate]	12.37 min	0.33 min	3.26 min	0.09 min		
COC(=O)CC[C@@H]1N=C(c2ccccc2)c2cc([N+](=O)[O-])ccc2-n2c(SCCN3CCOCC3)nnc21 [Compound 107, methyl (S)-3-(8-nitro-1-((2-morpholinoethyl)thio)-6-phenyl-4H-benzo[f][1,2,4]triazolo[4,3-a][1,4]diazepin-4-yl)propionate]	13.64 min	0.45 min				
COC(=O)CC[C@@H]1N=C(c2ccccc2)c2cc(Cl)ccc2-n2c(SCCCN(C)C)nnc21 [Compound 108, methyl (S)-3-(8-chloro-1-((3-(dimethylamino)propyl)thio)-6-phenyl-4H-benzo[f][1,2,4]triazolo[4,3-a][1,4]diazepin-4-yl)propionate]			11.73 min	0.59 min		
COC(=O)CC[C@@H]1N=C(c2ccccc2)c2cc(Br)ccc2-n2c(SCCCN(C)C)nnc21 [Compound 109, methyl (S)-3-(8-bromo-1-((3-(dimethylamino)propyl)thio)-6-phenyl-4H-benzo[f][1,2,4]triazolo[4,3-a][1,4]diazepin-4-yl)propionate]			13.27 min	0.97 min		
COC(=O)CC[C@@H]1N=C(c2ccccc2)c2cc([N+](=O)[O-])ccc2-n2c(SCCCN(C)C)nnc21 [Compound 110, methyl (S)-3-(8-nitro-1-((3-(dimethylamino)propyl)thio)-6-phenyl-4H-benzo[f][1,2,4]triazolo[4,3-a][1,4]diazepin-4-yl)propionate]	10.16 min	0.22 min	15.27 min	0.21 min		
COC(=O)CC[C@@H]1N=C(c2ccccc2Cl)c2cc(Cl)ccc2-n2c(SCOP(=O)(O)O)nnc21 [Compound 111, methyl (S)-3-(8-chloro-6-(2-chlorophenyl)-1-(((phosphonooxy)methyl)thio)-4H-benzo[f][1,2,4]triazolo[4,3-a][1,4]diazepin-4-yl)propionate]	18.36 min	0.67 min				
COC(=O)CC[C@@H]1N=C(c2ccccc2Cl)c2cc(Br)ccc2-n2c(SCOP(=O)(O)O)nnc21 [Compound 112, methyl (S)-3-(8-bromo-6-(2-chlorophenyl)-1-(((phosphonooxy)methyl)thio)-4H-benzo[f][1,2,4]triazolo[4,3-a][1,4]diazepin-4-yl)propionate]	19.21 min	0.78 min	12.62 min	0.46 min		
COC(=O)CC[C@@H]1N=C(c2ccccc2Cl)c2cc([N+](=O)[O-])ccc2-n2c(SCOP(=O)(O)O)nnc21 [Compound 113, methyl (S)-3-(8-nitro-6-(2-chlorophenyl)-1-(((phosphonooxy)methyl)thio)-4H-benzo[f][1,2,4]triazolo[4,3-a][1,4]diazepin-4-yl)propionate]			9.49 min	0.58 min		
COC(=O)CC[C@@H]1N=C(c2ccccn2)c2cc(Br)ccc2-n2c(SC)nnc21 [Compound 114, methyl (S)-3-(8-bromo-6-(pyridin-2-yl)-1-methylthio-4H-benzo[f][1,2,4]triazolo[4,3-a][1,4]diazepin-4-yl)propionate]	20.32 min	0.41 min				
CCSc1nnc2n1-c1ccc(Br)cc1C(c1ccccn1)=N[C@H]2CCC(=O)OC [Compound 115, methyl (S)-3-(8-bromo-6-(pyridin-2-yl)-1-ethylthio-4H-benzo[f][1,2,4]triazolo[4,3-a][1,4]diazepin-4-yl)propionate]	5.02 min	0.13 min			1.26 min	0.18 min
COC(=O)CC[C@@H]1N=C(c2ccccn2)c2cc(Br)ccc2-n2c(SCC3CC3)nnc21 [Compound 116, methyl (S)-3-(8-bromo-6-(pyridin-2-yl)-1-((cyclopropylmethyl)thio)-4H-benzo[f][1,2,4]triazolo[4,3-a][1,4]diazepin-4-yl)propionate]	10.89 min	0.11 min				
COC(=O)CC[C@@H]1N=C(c2ccccn2)c2cc(Br)ccc2-n2c(SCCN3CCOCC3)nnc21 [Compound 117, methyl (S)-3-(8-bromo-6-(pyridin-2-yl)-1-((2-morpholinoethyl)thio)-4H-benzo[f][1,2,4]triazolo[4,3-a][1,4]diazepin-4-yl)propionate]	2.03 min	0.14 min				
COC(=O)CC[C@@H]1N=C(c2ccccn2)c2cc(Br)ccc2-n2c(SCCCN(C)C)nnc21 [Compound 118, methyl (S)-3-(8-bromo-6-(pyridin-2-yl)-1-(3-((dimethylamino)propyl)thio)-4H-benzo[f][1,2,4]triazolo[4,3-a][1,4]diazepin-4-yl)propionate]	15.44 min	0.32 min				
COC(=O)CC[C@@H]1N=C(c2ccccc2F)c2cc(Br)ccc2-n2c(SCCN3CCCC3)nnc21 [Compound 120, methyl (S)-3-(8-bromo-6-(2-fluorophenyl)-1-(2-((pyrrolidin-1-yl)ethyl)thio)-4H-benzo[f][1,2,4]triazolo[4,3-a][1,4]diazepin-4-yl)propionate]	19.47 min	0.29 min				
